Blank lines part the entries; values can stand above or below the compound they belong to.
Experiments:
[1] = target: p53-382 acetylated peptide (human) (UniProt P04637)
HeLa S3 cells = test: Cellular deacetylase assay (FdL, TSA-insensitive signal); type: cell-based, human; details: 500 μM compound, 200 μM FdL, 1 μM TSA, 1 hour
Procedure: FdL (200 μM) is added to growth media and cells incubated for 1-3 hours to allow FdL to enter the cells and the lysine-deacetylated product (deAc-FdL) to accumulate intracellularly. Cells are lysed with detergent in the presence of 1 μM TSA, 1 mM nicotinamide. Addition of the non-cell-permeable Developer (BIOMOL) releases a fluorophor, specifically from deAc-FdL. b, SIRT1 activating polyphenols can stimulate TSA-insensitive, FdL deacetylation by HeLa S3 cells. Cells were grown adherently in DMEM/10% FCS and treated for 1 hour with 200 μM FdL, 1 μM TSA and either vehicle (0.5% final DMSO, Control) or 500 μM of the indicated compound. Intracellular accumulation of deAc-FdL was then determined as described briefly in a. […] Lysates were prepared and analyzed as above. […]
Themed compound libraries (BIOMOL) were used for primary and secondary screening. […] In vitro fluorescence assay results were read in white ½-volume 96-well microplates (Coming Costar 3693) with a CytoFluor™. II fluorescence plate reader (PerSeptive Biosystems, Ex. 360 nm, Em. 460 nm, gain=85). HeLa cells were grown and the cellular deacetylation assays were performed and read, as above, but in full-volume 96-well microplates (Coming Costar 3595). […]

S. cerevisiae = test: Yeast replicative lifespan; type: cell-based
Procedure: Average lifespan for wild type, 22.9 generations, quercetin, 23.4; piceatannol. […]
All yeast strains were grown at 30° C. in complete yeast extract/bactopeptone, 2.0% (w/v) glucose (YPD) medium except where stated otherwise. Calorie restriction was induced in 0.5% glucose. Synthetic complete (SC) medium consisted of 1.67% yeast nitrogen base, 2% glucose, 40 mg/litre each of auxotrophic markers. SIR2 was integrated in extra copy and disrupted as described^5. Other strains are described elsewhere^26. For cellular deacetylation assays, HeLa S3 cells were used. U20S osteosarcoma and human embryonic kidney (HEK 293) cells were cultured adherently in Dulbecco's Modified Eagle's Medium (DMEM) containing 10% fetal calf serum (FCS) with 1.0% glutamine and 1.0% penecillin/streptomycin. HEK 293 overexpressing dominant negative SIRT1 H363Y was a gift of R. Frye (U. Pittsburgh).
Lifespan measurements were performed using PSY316AT MATα as previously described^35. All compounds for lifespan analyses were dissolved in 95% ethanol and plates were dried and used within 24 hours. Prior to lifespan analysis, cells were pre-incubated on their respective media for at least 15 hours. Following transfer to a new plate, cells were equilibrated on the medium for a minimum of 4 hours prior to micro-manipulating them. At least 30 cells were examined per experiment and each experiment was performed at least twice. Statistical significance of lifespan differences was determined using the Wilcoxon rank sum test. Differences are stated to be significant when the confidence is higher than 95%.

recombinant human SIRT1 = target: T1, recombinant human SIRT1 (Homo sapiens, UniProt Q96EB6); test: SIRT1 fluorescent deacetylation assay (p53-382 acetylated peptide); type: biochemical; details: 25 μM NAD+, 25 μM p53-382 acetylated peptide, compounds at 100 μM
T1 sequence (Q96EB6 1-747): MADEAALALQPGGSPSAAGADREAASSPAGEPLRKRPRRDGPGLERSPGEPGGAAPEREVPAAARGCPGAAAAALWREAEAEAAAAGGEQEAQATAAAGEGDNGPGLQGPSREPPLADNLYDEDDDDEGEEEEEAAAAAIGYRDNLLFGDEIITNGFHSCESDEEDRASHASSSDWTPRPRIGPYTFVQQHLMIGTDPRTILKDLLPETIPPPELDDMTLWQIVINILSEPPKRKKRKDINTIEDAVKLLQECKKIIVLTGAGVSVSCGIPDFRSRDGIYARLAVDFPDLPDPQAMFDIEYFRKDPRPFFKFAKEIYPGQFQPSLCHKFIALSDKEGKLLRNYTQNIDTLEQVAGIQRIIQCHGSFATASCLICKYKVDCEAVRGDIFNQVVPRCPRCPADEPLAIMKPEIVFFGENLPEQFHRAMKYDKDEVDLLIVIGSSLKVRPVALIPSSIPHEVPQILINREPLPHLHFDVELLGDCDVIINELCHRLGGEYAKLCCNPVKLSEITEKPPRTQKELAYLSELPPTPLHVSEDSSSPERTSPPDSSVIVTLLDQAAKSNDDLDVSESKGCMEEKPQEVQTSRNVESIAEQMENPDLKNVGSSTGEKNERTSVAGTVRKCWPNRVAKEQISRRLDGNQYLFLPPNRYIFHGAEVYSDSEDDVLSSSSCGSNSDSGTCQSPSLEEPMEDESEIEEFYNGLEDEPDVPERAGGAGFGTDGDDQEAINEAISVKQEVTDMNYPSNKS
Text: Lines represent non-linear least-squares fits to the Michaelis-Menten equation. […] Lines represent non-linear least-squares fits to the Michaelis-Menten equation. […] Error bars are standard errors of the mean.
To identify compounds that modulate SIRT1 activity, a number of small molecule libraries were screened using a fluorescent deacetylation assay in 96-well plates^26. The substrate used in the assay was a fluorogenic peptide based on the sequence encompassing the p53-K382 acetylation site, a known target of SIRT1 in vivo^20,21,27. […] The small molecule libraries included analogues of nicotinamide, ε-acetyl lysine, NAD^+, nucleotides, nucleotide analogues and purinergic ligands.
His6-tagged recombinant SIRT1 and GST-tagged recombinant Sir2 were prepared as previously described^26. From 0.1 to 1 μg of SIRT1 and 1.5 μg of Sir2 were used per deacetylation assay (in 50 μl total reaction) as previously described^26.
Themed compound libraries (BIOMOL) were used for primary and secondary screening. Most polyphenol compounds were dissolved at 10 mM in dimethylsulfoxide (DMSO) on the day of the assay. For water soluble compounds and negative controls, 1% v/v DMSO was added to the assay. […] Unless otherwise indicated all initial rate measurements were means of three or more replicates, obtained with single incubation times, at which point 5% or less of the substrate initially present had been deacetylated. Calculation of net fluorescence increases included subtraction of a blank value, which in the case of Sir2 was obtained by omitting the enzyme from the reaction and in the case of SIRT1 by adding an inhibitor (200 μM suramin or 1 mM nicotinamide) to the reaction prior to the acetylated substrate. […] All error bars represent the standard error of the mean.

C. elegans = C. elegans lifespan; type: in vivo; details: N2 worms, E. coli as food
Procedure: Thus, the presence of resveratrol in the growth media of C. elegans extends their lifespan.
Bristol N2 (Caenorhabditis Genetics Center) was used as the wild-type strain. The sir-2.1 mutant strain was generated by backcrossing VC199 (sir-2.1(ok434)) to N2 four times. Cultures were grown on standard NGM media and maintained on E. coli strain OP50. For the lifespan assays, synchronized animals were transferred to treatment plates as young adults (2 d after hatching, day 0 of assay), and were transferred to fresh treatment plates every 2 days for the first 6 to 8 days of the assay. […] For some lifespan trials, heat-killed OP50 were used as a food source. OP50 cultures were heated to 65° C. for 30 minutes, then pelleted and resuspended in 1/10 volume in S Basal supplemented with 10 mM MgSO4. In all assays, worms were monitored daily for mortality by gently probing with a platinum pick. Assays were performed at 24° C. To assay worm feeding rates, worms at the indicated stages were placed on treatment plates (no FUdR) for 4-5 hours, then videoed for 1 minute using a Pixelink PL-662 camera. The frame rate was slowed and the pumping rate of the pharynx was counted. To assay fecundity, gravid hermaphrodites (5 per plate, raised from synchronized L1s on normal or treatment plates) were allowed to lay eggs on their respective media for 5 hours, and the total number of eggs was counted.

[2] = target: T2, SIRT1 deacetylase (BIOMOL) (Homo sapiens, UniProt Q96EB6); test: High-throughput SIRT1 screening protocol (ICCB library); type: biochemical; details: positive controls; 200 μM NAD+, 5 μM Fluor de Lys-SIRT1; resveratrol 50 μM
T2 construct: purchased BIOMOL
T2 sequence (Q96EB6 1-747): T1 sequence (Q96EB6 1-747)
Procedure: The reaction mixture contains (final): 0.5 units/reaction SIRT1 deacetylase (BIOMOL); 200 μM NAD^+; 5 μM Fluor de Lys-SIRT1 substrate (BIOMOL); buffer (25 mM Tris/Cl, pH 8.0, 137 mM NaCl, 2.7 mM KCl, 1 mM MgCl2, and 1 mg/ml BSA). In addition, a reaction mixture containing no enzyme was made so that each well receiving compound has a corresponding “no enzyme control” well. Reactions were performed in black 384 well plates (NUNC) in a final volume of 25 μl/well.
The reactions were started by combining enzyme and substrate in a reaction mixture immediately prior to aliquoting in plates (or substrate only for “no enzyme control” plates). Mixture were aliquoted to plates using Biotek μfill (Biotek Instruments). Control mixtures were manually added to designated wells. A library compound was added at a desired concentration by pin transfer to both “with enzyme” and “no enzyme” plates. Compounds were added in at least triplicate (with enzyme reaction in duplicate and no enzyme controls) at a final concentration of roughly 50 μM. The plates were incubated at 37° C for 30-60 minutes. Then 25 μl of 1× Developer II (BIOMOL) plus 2 mM nicotinamide were added to all wells to stop the reactions. The reactions were left for at least 30 minutes at 37° C. for the signal to develop. The plates were read in a microplate-reading fluorometer capable of excitation at a wavelength in the range of 350-380 nm and detection of emitted light in the range of 440-460 nm. A read time of 0.1 sec per well was used.

[3] = tested on: Experimental autoimmune encephalomyelitis (EAE) in SJL/J mice; details: FK506 5 mg/kg/day
[4] = tested on: thoracic spinal cord of EAE SJL/J mice; test: EAE spinal cord white matter damage; type: in vivo, mouse; details: FK506 5 mg/kg, significant
Text: At day 40 post-immunization, mice from each group are sacrificed with an overdose of ketamine/xylazine. Spinal cords are dissected, fixed in 10% buffered formalin, and embedded in paraffin. Five micron thick sections are stained with Hematoxylin and Eosin (H&E) and Luxol Fast Blue (LFB) to assess myelin loss. Bielshowesky's silver impregnation is used to evaluate axonal integrity. To asses the amount of axonal loss, paraffin sections are exposed to monoclonal antibodies against mouse non-phosphorylated neurofilament H (Clone SMI-32, Stemberger Monoclonals, Baltimore, USA) and monoclonal antibodies against APP (Clone 22C11, Chemicon). SMI-32 is detected with a Cy3-labeled antibody and visualized by fluorescence microscopy. Anti-APP antibodies are detected by incubation with ColonoPAP, and APP-positive axons are visualized with 3,3′-diaminobenzidine (DAB).
The percentage of the spinal cord showing damage was determined in the cervical, thoracic and lumbar cord. At each level, regions in the 1) dorsal columns and 2) the lateral and ventral white matter tracts containing damaged fibers was circumscribed on photomontages (final magnification ×100) of the entire spinal cord. Damaged areas in each of the two regions were measured using a SummaSketch III (Summagraphics, Seymour, Conn.) digitizing tablet and BIOQUANT Classic 95 software (R&M Biometrics, Nashville, Tenn.). Measurements were also be made of the total area (damaged and nondamaged) of the 1) dorsal columns and 2) the lateral and ventral columns. For each section (one section per animal), the cumulative percent lesion areas were calculated for each region (dorsal column, lateral and ventral columns).

Km for the acetylated peptide (initial deacetylation rate, fluorescence) [1]: 64 µM
Compound: His6-tagged recombinant SIRT1 (enzyme)

Compound: O=C(/C=C/c1ccc(O)c(O)c1)c1ccc(O)cc1O [butein, 3,4,2′,4′-Tetrahydroxychalcone]
TSA-insensitive cellular deacetylation signal (HeLa S3 cells): no effect on the cellular signal
increase of average lifespan (S. cerevisiae; 10 μM): 31%
maximum lifespan (in words) (S. cerevisiae; 10 μM): significantly increased maximum lifespan
Average lifespan (S. cerevisiae; 10 μM compound, 2% glucose medium, wild type untreated 22.9): 35.5 generations

Compound: COc1ccc(/C=C/c2cc(O)cc(O)c2)cc1 [BML-233, 3,5-Dihydroxy-4′-methoxy-trans-stilbene]
SIRT1 stimulating activity (in words) (recombinant human SIRT1): strong activator of sirtuins
% change in C. elegans lifespan relative to untreated organisms (C. elegans; (10)): 70%
% change in C. elegans lifespan relative to untreated organisms (C. elegans; (500)): 50%
activated SIRT1 [2]: 2.1 fold

Compound: C=CC[C@@H]1/C=C(\C)C[C@H](C)C[C@H](OC)[C@H]2O[C@@](O)(C(=O)C(=O)N3CCCC[C@H]3C(=O)O[C@H](/C(C)=C/[C@@H]3CC[C@@H](O)[C@H](OC)C3)[C@H](C)[C@@H](O)CC1=O)[C@H](C)C[C@@H]2OC [FK506]
Mean EAE Score - Last 10 Days ([3]; vehicle 23.00): 7.75
Mean total EAE score ([3]; vehicle 72.38): 25.38
reduction of extent of damage in dorsal, lateral and ventral white matter [4]: over 90%

Reference: US20060276393A1, “Novel compositions for preventing and treating neurodegenerative and blood coagulation disorders” (Sirtris Pharmaceuticals, Inc., priority 2005, published 2006)
